Experimental data reported in ChEMBL document CHEMBL1137492, “Phenylethyl-substituted pyrimido[2,1-f]purinediones and related compounds: structure-activity relationships as adenosine A(1) and A(2A) receptor ligands” (Bioorg Med Chem, 2007).
pKi: −log10 of the molar value.

Legend:
[1] = target: Adenosine receptor A2a (Rattus norvegicus) (UniProt P30543); assay: Displacement of [3H]MSX2 from adenosine A2A receptor in rat brain striatal membrane at 10 uM; assay type: cell membranes
Adenosine receptor A2a [2] = target: Adenosine receptor A2a (Rattus norvegicus, UniProt P30543)
Adenosine receptor A1 [3] = target: T1, Adenosine receptor A1 (Rattus norvegicus, UniProt P25099); assay: Displacement of [3H]CCPA from adenosine A1 receptor in rat brain cortical membrane; assay type: cell membranes
T1 sequence (P25099 whole entry): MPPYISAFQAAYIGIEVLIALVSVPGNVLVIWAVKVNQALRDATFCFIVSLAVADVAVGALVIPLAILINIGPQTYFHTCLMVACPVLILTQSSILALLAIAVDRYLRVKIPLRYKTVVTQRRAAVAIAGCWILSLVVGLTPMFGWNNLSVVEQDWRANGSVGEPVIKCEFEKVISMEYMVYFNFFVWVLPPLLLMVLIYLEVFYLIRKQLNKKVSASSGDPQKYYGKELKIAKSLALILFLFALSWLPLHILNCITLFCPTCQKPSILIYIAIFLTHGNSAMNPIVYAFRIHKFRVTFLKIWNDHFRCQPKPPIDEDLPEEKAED

[4] = target: Adenosine receptor A1 (Rattus norvegicus) (UniProt P25099); assay: Displacement of [3H]CCPA from adenosine A1 receptor in rat brain cortical membrane at 10 uM
Adenosine receptor A3 [5] = target: T2, Adenosine receptor A3 (Homo sapiens, UniProt P0DMS8); assay: Displacement of [3H]PSB11 from human adenosine A3 receptor expressed in CHO cells; assay type: cell-based
T2 sequence (P0DMS8 whole entry): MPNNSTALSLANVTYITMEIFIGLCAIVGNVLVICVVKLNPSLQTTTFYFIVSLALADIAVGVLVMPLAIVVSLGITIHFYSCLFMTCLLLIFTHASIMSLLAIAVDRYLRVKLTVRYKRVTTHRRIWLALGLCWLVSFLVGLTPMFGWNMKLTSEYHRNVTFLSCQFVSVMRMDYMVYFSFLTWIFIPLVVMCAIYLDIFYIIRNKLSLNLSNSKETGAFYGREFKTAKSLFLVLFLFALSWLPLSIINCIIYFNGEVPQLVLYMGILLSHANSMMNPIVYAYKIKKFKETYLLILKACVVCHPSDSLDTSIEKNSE

[6] = target: T3, Adenosine receptor A2b (Homo sapiens) (UniProt P29275); assay: Displacement of [3H]PSB298 from human adenosine A2B receptor expressed in CHO cells at 10 uM; assay type: cell-based
T3 sequence (whole entry): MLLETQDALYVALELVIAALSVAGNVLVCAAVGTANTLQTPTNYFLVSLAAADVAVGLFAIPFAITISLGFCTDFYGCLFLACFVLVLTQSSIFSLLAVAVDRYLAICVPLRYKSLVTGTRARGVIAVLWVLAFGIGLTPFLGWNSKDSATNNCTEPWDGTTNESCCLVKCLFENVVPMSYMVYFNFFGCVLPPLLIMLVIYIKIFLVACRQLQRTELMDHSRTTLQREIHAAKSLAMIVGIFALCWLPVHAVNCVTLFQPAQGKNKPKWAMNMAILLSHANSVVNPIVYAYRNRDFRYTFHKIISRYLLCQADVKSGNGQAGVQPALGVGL

Adenosine receptor A2b = target: T4, Adenosine receptor A2b (Homo sapiens, UniProt P29275); assay: Displacement of [3H]ZM-241385 from human adenosine A2B receptor expressed in CHO cells; assay type: cell-based
T4 sequence (P29275 whole entry): T3 sequence (whole entry)

[7] = target: Adenosine receptor A1 (Rattus norvegicus) (UniProt P25099); assay: Displacement of [3H]CCPA from adenosine A1 receptor in rat brain cortical membrane at 25 uM
Mus musculus [8] = assay: Toxicity in Albino F1 mouse assessed as death following tonic extension at 300 mg/kg after 0.5 hrs; details: in vivo
Adenosine receptor A2a [9] = target: Adenosine receptor A2a (Homo sapiens, UniProt P29274); assay: Displacement of [3H]MSX2 from human adenosine A2A receptor expressed in CHO cells; assay type: cell-based
Adenosine receptor A3 [10] = target: T2, Adenosine receptor A3; assay: (§1) Displacement of [3H]PSB11 from human adenosine A3 receptor expressed in CHO cells at 10 uM; assay type: cell-based
Adenosine receptor A1 [11] = target: T5, Adenosine receptor A1 (Homo sapiens, UniProt P30542); assay: Displacement of [3H]CCPA from human adenosine A1 receptor expressed in CHO cells; assay type: cell-based
T5 sequence (P30542 whole entry): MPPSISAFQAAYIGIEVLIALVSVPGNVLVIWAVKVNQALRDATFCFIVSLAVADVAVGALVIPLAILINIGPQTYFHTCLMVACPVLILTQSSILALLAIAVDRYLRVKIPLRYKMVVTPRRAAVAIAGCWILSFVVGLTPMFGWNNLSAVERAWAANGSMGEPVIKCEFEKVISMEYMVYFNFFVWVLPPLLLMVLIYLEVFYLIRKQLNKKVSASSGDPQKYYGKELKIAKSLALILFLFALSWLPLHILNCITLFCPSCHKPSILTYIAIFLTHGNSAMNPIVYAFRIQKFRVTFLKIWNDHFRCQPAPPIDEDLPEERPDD

[12] = target: T6, Adenosine receptor A1 (Homo sapiens) (UniProt P30542); assay: Displacement of [3H]CCPA from human adenosine A1 receptor expressed in CHO cells at 25 uM; assay type: cell-based
T6 sequence (whole entry): T5 sequence (P30542 whole entry)

[13] = target: T3, Adenosine receptor A2b (Homo sapiens); assay: Displacement of [3H]ZM-241385 from human adenosine A2B receptor expressed in CHO cells at 10 uM; assay type: cell-based
Mus musculus [14] = assay: Toxicity in Albino F1 mouse assessed as continuous seizure followed by death at 100 mg/kg after 0.5 hrs; assay type: organism-based; design: dose 100 mg/kg; details: in vivo
[15] = target: T7, Adenosine receptor A3 (Homo sapiens) (UniProt P0DMS8); assay: as §1; assay type: cell-based
T7 sequence (whole entry): T2 sequence (P0DMS8 whole entry)

[16] = target: Adenosine receptor A2a (Rattus norvegicus) (UniProt P30543); assay: Displacement of [3H]MSX2 from adenosine A2A receptor in rat brain striatal membrane at 25 uM; assay type: cell membranes
Mus musculus [17] = assay: Toxicity in Albino F1 mouse assessed as tonic extension followed by death at 300 mg/kg after 0.5 hrs; assay type: organism-based; design: dose 300 mg/kg; details: in vivo
Mus musculus [18] = assay: Toxicity in Albino F1 mouse assessed as continuous seizure at 100 mg/kg after 0.5 hrs; assay type: organism-based; design: dose 100 mg/kg; details: in vivo
Mus musculus [19] = assay: Toxicity in Albino F1 mouse assessed as tonic extension followed by death at 30 mg/kg after 0.5 hrs; assay type: organism-based; design: dose 30 mg/kg; details: in vivo

Chain of Adenosine receptor A2a (Rattus norvegicus) (P30543 whole entry): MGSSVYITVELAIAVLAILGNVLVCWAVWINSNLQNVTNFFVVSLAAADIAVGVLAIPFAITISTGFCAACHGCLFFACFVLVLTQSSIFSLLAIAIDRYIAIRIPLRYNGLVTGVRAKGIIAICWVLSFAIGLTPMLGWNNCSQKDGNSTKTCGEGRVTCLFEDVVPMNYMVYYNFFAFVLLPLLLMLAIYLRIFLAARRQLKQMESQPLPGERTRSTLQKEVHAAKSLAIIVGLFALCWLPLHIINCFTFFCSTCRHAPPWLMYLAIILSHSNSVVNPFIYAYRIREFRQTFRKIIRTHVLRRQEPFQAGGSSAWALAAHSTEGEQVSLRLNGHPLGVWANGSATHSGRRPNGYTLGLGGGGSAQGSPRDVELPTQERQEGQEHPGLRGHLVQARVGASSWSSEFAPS
Chain of Adenosine receptor A2a (Rattus norvegicus, UniProt P30543) (P30543 whole entry): as above
Chain of Adenosine receptor A2a (Homo sapiens, UniProt P29274) (P29274 whole entry): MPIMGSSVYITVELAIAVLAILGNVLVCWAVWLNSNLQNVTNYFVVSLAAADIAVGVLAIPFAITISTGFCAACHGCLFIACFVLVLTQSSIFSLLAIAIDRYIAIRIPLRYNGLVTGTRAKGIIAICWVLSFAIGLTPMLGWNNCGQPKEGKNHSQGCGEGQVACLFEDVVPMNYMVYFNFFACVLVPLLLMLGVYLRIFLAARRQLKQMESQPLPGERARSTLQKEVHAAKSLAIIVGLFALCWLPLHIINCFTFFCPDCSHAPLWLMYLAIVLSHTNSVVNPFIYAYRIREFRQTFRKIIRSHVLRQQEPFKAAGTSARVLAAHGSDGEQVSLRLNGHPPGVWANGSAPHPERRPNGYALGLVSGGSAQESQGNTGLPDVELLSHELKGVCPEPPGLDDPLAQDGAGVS

SMILES	pKi (Adenosine receptor A2a [2])	pKi (Adenosine receptor A1 [3])	pKi (Adenosine receptor A3 [5])	also measured
Cn1c(=O)c2c(nc3n2CCCN3CCOC(=O)Nc2cccc(Cl)c2)n(C)c1=O	< 5.00	< 5.00		Activity [1]: 33%; Activity [4]: 10%
Cc1ccc(OCCN2CCCn3c2nc2c3c(=O)n(C)c(=O)n2C)cc1	5.34	5.00	< 6.00	Activity [4]: 41%
Cn1c(=O)c2c(nc3n2CCCN3CCOC/C=C/c2ccccc2)n(C)c1=O	5.37	5.00	< 6.00	Activity [4]: 36%
CC(=O)Nc1ccc(OCCN2CCCn3c2nc2c3c(=O)n(C)c(=O)n2C)cc1	5.69	5.00	< 6.00	Activity [4]: 41%
Cn1c(=O)c2c(nc3n2CCCN3CCNCc2ccc(F)cc2)n(C)c1=O	4.85	5.58		
Cn1c(=O)c2c(nc3n2CCCN3CCNCc2ccccc2)n(C)c1=O	4.70	5.12		Activity [6]: 27%; pKi (Adenosine receptor A2b): < 5.00
COc1ccc(CCN2CCCn3c2nc2c3c(=O)n(C)c(=O)n2C)cc1OC	5.92	≤ 4.60		Activity [7]: 33%
CC(=O)OC(CN1CCCn2c1nc1c2c(=O)n(C)c(=O)n1C)c1ccccc1 (configuration not stated)	6.00			Activity [7]: 50%
Cn1c(=O)c2c(nc3n2CCCN3CCOC(=O)Nc2ccc(Cl)cc2)n(C)c1=O	< 5.00	< 5.00		Activity [1]: 32%; Activity [4]: 24%; Activity (Mus musculus [8]): Toxic
Cn1c(=O)c2c(nc3n2CCCN3CCOc2ccc(Cl)cc2Cl)n(C)c1=O	5.96	5.46		
Cn1c(=O)c2c(nc3n2CCCN3CCOC(=O)Nc2ccccc2)n(C)c1=O	< 5.00	< 5.00		Activity [1]: 35%; Activity [4]: 3%
CC(C(O)c1ccccc1)N1CCCn2c1nc1c2c(=O)n(C)c(=O)n1C (configuration not stated)	5.67	4.60		Activity [7]: 45%
Cn1c(=O)c2c(nc3n2CCCN3CCc2c[nH]c3ccccc23)n(C)c1=O	6.48	4.60	< 5.00	pKi (Adenosine receptor A2a [9]): 5.34; Inhibition (Adenosine receptor A3 [10]): 21%; pKi (Adenosine receptor A1 [11]): < 4.60; Activity [12]: 21%; pKi (Adenosine receptor A2b): 5.00; Activity [13]: 56%
Cn1c(=O)c2c(nc3n2CCCN3CCc2ccc(O)cc2)n(C)c1=O		4.60	< 5.00	Inhibition (Adenosine receptor A3 [10]): 9%; pKi (Adenosine receptor A1 [11]): ≤ 4.60; Activity [12]: 34%
Cn1c(=O)c2c(nc3n2CCCN3CCOC(=O)Nc2ccc(F)cc2)n(C)c1=O	≤ 5.00	< 5.00		Activity [1]: 42%; Activity [4]: 13%; Activity (Mus musculus [14]): Toxic
Cn1c(=O)c2c(nc3n2CCCN3CCOc2ccc(Cl)cc2)n(C)c1=O	4.60	5.37	< 6.00	Activity [15]: 45%; pKi (Adenosine receptor A2b): 5.00; Activity [16]: 49%; Activity [13]: 44%
Cn1c(=O)c2c(nc3n2CCCN3CCc2ccc(Cl)cc2)n(C)c1=O	6.32	5.19		Activity (Mus musculus [17]): Toxic
COc1ccc(CCN2CCCn3c2nc2c3c(=O)n(C)c(=O)n2C)cc1	6.43	5.41		
Cn1c(=O)c2c(nc3n2CCCN3CCOCc2ccccc2)n(C)c1=O	5.43	5.50		
Cn1c(=O)c2c(nc3n2CCCN3CCCc2ccccc2)n(C)c1=O	5.96	5.70		Activity (Mus musculus [18]): Toxic
Cn1c(=O)c2c(nc3n2CCCN3CCc2ccccc2)n(C)c1=O	6.49	< 4.60	< 5.00	pKi (Adenosine receptor A2a [9]): 5.54; Inhibition (Adenosine receptor A3 [10]): 20%; pKi (Adenosine receptor A1 [11]): < 5.00; Activity [12]: 44%; pKi (Adenosine receptor A2b): 5.00; Activity [7]: 31%; Activity (Mus musculus [19]): Toxic; Activity [13]: 57%
Cn1c(=O)c2c(nc3n2CCCN3CCc2ccccn2)n(C)c1=O	< 4.60	< 4.60	< 5.00	pKi (Adenosine receptor A2b): 4.87; Activity [16]: 37%
CC(=O)OC(c1ccccc1)C(C)N1CCCn2c1nc1c2c(=O)n(C)c(=O)n1C (configuration not stated)	5.91			
Cn1c(=O)c2c(nc3n2CCCN3CCOCc2ccc(F)cc2)n(C)c1=O	5.52	5.43		
CCCn1c(=O)c2c(nc3n2CCCN3CCc2c[nH]c3ccccc23)n(CCC)c1=O	6.05	5.75	< 6.00	
CCCn1c(=O)c2c(nc3n2CCCN3CCc2ccccc2)n(CCC)c1=O	6.07	6.21	5.44	pKi (Adenosine receptor A2b): 6.23
CCCn1c(=O)c2c(nc3n2CCCN3CCc2ccc(OC)c(OC)c2)n(CCC)c1=O	5.88	6.09	< 6.00	
Cn1c(=O)c2c(nc3n2CCCN3CC(O)c2ccccc2)n(C)c1=O (configuration not stated)	5.95	4.60		Activity [7]: 49%
Cn1c(=O)c2c(nc3n2CCCN3CCOCc2ccc(Cl)cc2)n(C)c1=O	5.88	5.00		Activity [4]: 48%
